Measurements reported in publication PMC6430500, “3-Fluoro-4-hydroxyprolines: Synthesis, Conformational Analysis, and Stereoselective Recognition by the VHL E3 Ubiquitin Ligase for Targeted Protein Degradation” (Journal of the American Chemical Society, 2018).
Read-outs that look alike come from different tables or passages of the source. Marks after values point to notes of the source that are not given here. *1 amine or outer side, *2 acyl side, *3 side chain or, on linkers, in order; H or OH if unused. Where a SMILES comes first, the peptide text is derived from it. [ ]: non-standard residue; d: D form. X1 = O=C([C@@H]1[C@@H](F)[C@@H](O)CN1[*:1])[*:2]; X2 = O=C([C@@H]1[C@H](F)[C@@H](O)CN1[*:1])[*:2]

Experiments:
[1] = target: T1, VBC (VHL, elongin B, elongin C) (Homo sapiens, UniProt P40337); assay: ITC of peptides and ligands against VBC; format: binding; conditions: for Kd / ΔG / ΔH / –TΔS: ITC, 25°C; for Kd: mean ± s.e.m.; for fold difference in binding affinity compared to VH032: relative to VH032 Kd
T1 construct: VHL (54–213), ElonginC (17–112) and; His6 (N, cleaved yes); made in house; host or cells: Escherichia coli BL21(DE3)
T1 sequence (P40337 54-213): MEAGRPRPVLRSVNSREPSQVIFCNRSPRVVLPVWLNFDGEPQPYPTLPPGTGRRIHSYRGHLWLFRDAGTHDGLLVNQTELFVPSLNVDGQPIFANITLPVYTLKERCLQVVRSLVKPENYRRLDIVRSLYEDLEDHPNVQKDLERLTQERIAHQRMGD
T1 sequence (Q15369 17-112 partner limits assumed): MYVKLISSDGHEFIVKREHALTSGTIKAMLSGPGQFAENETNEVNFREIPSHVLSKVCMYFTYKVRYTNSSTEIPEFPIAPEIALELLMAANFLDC
T1 sequence (Q15370 1-104 partner limits assumed): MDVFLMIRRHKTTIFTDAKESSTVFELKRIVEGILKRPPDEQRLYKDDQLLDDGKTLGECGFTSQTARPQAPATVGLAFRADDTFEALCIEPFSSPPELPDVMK

[2] = test system: A549 cells; assay: A549 colony-formation assay; format: cell-based; conditions: 7 days, crystal violet
Experimental: A549 Colony-Formation Assay
A549 cells were seeded in clear, Nunc™ Edge 2.0 96 -w ell plates (Thermo Scientific) at 1000 cells per well and incubated at 37°C in DMEM. After 24 h cells were treated with test compounds from 10 µM to 100 nM , with a final DM SO of 0.1%. The cells were left to grow until DM SO -treated wells reached ~100% confluence (~8 days), at which point they were washed with PBS, fixed with 100% MeOH (30 min 4°C), stained with 0.1% crystal violet (30 min at r.t.) and left to dry overnight. Once dried plates were imaged on an Epson Perfection V800 scanner, at a resolution of 1200 DPI and in 48 -bit colour.
For dose-response curves, crystal-violet dye was extracted by the addition of 200 µl 1% SDS to each well, and incubation for 3 h at r.t. The absorbance at 595nm of each well was measured on a Pherastar FS (BMG), normalised for each compound and plotted against compound concentration.
(1 picture or pasted object on this page, not shown here)

[3] = test system: MV4;11 cells; assay: CellTiter-Glo cell viability assay; format: cell-based; conditions: for EC50: MV4-11, 72 h
Experimental: MV4;11 cells (15000 cells per well) were dosed for 72 h with compounds serially diluted (1:3) on a clear-bottom 384-well plate with a final concentration of 0.05% (v/v) DMSO. After treatment, Promega CellTiter-Glo luminescent cell viability assay (G7572) was added to the cells according to the manufacturer instructions. The signal from each well was recorded on a BM G Labtech Pherastar luminescence plate reader with recommended settings.
Normalized data were analyzed and plotted with Graphpad Prism software in the ‘log(inhibitor) vs. response -- Variable slope (four parameters)’ module. EC50 values of each test compound were […]

[4] = CHI Log D determination; format: physicochemical; conditions: reversed-phase HPLC, Phenomenex Luna C18 column, pH 7.4; read-out: CHI LogD7.4
Experimental: Using a fast gradient, reverse-phase HPLC method to determine the chromatographic hydrophobicity index (CHI) was determined as described by Camurri and Zaramella (ref. 26) and Valko et al. (ref. 27).
Briefly, by plotting the retention time of a set of reference compounds against known CHI values. The CHI value of test compounds was then calculated according to their retention time.
Test compounds were prepared as 0.5 mM solutions in 50:50 acetonitrile:water and analysed by reversed-phase HPLC-UV (wavelength 254 nm) using a Phenomenex Luna C18 100Å 150 x 4.6mm 5 micron column with a gradient of aqueous phase (50 mM ammonium acetate, pH 7.4) and mobile

[5] = Plasma stability; format: in vitro ADME; conditions: 37 °C, pH 7.4, read-out: plasma stability T1/2
Experimental: (§1) Test compound (10 µM) was incubated in pre-warmed plasma at 37 ᵒC (that is buffered to pH 7.4 in ratio of 70:30 plasma to buffer). Immediately, at time zero, then at 30, 60, 120, and 180 min, a 50 µL aliquot of the incubation mixture was removed and mixed with 200 µL acetonitrile containing Donepezil as the internal standard (50 ng/ml) to stop the reaction. The samples were centrifuged to sediment the precipitated protein and the plates then sealed prior to UPLC-MS/MS analysis using a Quattro Premier XE (Waters Corporation, USA).
(§2) XLfit (IDBS, UK) was used to calculate the exponential decay and consequently the rate constant (k) from the ratio of peak area of test compound to internal standard at each time point. The half-life was calculated for each test compound from the rate by using the following calculation:
(§3) Test compound (0.5 µM) was incubated with female CD1 mouse liver microsomes (Xenotech LLC TM; 0.5 mg/mL in 50mM potassium phosphate buffer, pH 7.4) and the reaction started with addition of excess NADPH (8 mg/mL 50 mM potassium phosphate buffer, pH 7.4). […]
(§4) from the ratio of peak area of test compound to internal standard at each time point. The rate of intrinsic clearance (CLi) of each test compound was then calculated using the following calculation: […]

[6] = Intrinsic clearance in mouse liver microsomes; format: in vitro ADME; conditions: 0.5 µM
Experimental: as §1, §2, §3, §4

[7] = Parallel artificial membrane permeability assay (PAMPA); format: in vitro ADME; conditions: pH 7.4, 10 µM
Experimental: Parallel Artificial Membrane Permeability Assay (PAMPA)
PAMPA was performed using a 96-well pre-coated BD Gentest™ PAMPA plate (BD Biosciences, U.K.). Each well was divided into two chambers; donor and acceptor, separated by a lipid-oil-lipid tri-layer constructed in a porous filter. The effective permeability, Pe, of the compound was measured at pH 7.4. Stock solutions (5 mM) of the compound were prepared in DMSO. The compound was then further diluted to 10 µM in phosphate buffered saline at pH 7.4. The final DMSO concentration did not exceed 5% v/v. The compound dissolved in phosphate buffered saline was then added to the donor side of the membrane and phosphate buffered saline without compound was added to the acceptor side. The PAMPA plate was left at room temperature for 5 h. After which time, an aliquot (100 µl) was then removed from both acceptor and donor compartments and mixed with acetonitrile (80 µl) containing an internal standard. The samples were centrifuged (10 min, 5 °C, 3270 g) to sediment precipitated protein and sealed prior to UPLC-MS/MS analysis using a Quattro Premier XE (Waters Corp, USA). Pe was calculated as shown in the below equation: […]
C D(t)= peak area of compound present in donor well at time t = 18000 s Recovery of compound from donor and acceptor wells was calculated and data was only accepted when recovery exceeded 70%.

[8] = parameters: method as in Frost et al. 40; conditions: ref Frost et al. 40; cited from earlier work
[9] = parameters: method as in Frost et al. 40; conditions: ref Frost et al. 40; cited from earlier work; remark: listed apart in the source
[10] = parameters: method as in Frost et al. 40; conditions: ref Frost et al. 40; cited from earlier work; remark: listed apart in the source

In the case of `CC[C@H](C)[C@H](NC(=O)[C@H](Cc1ccc(O)cc1)NC(=O)[C@@H]1[C@@H](F)[C@@H](O)CN1C(=O)[C@H](C)NC(=O)[C@H](CC(C)C)NC(=O)[C@H](C)NC(=O)[C@H](CCC(=O)O)NC(=O)[C@@H](N)CC(=O)O)C(=O)N1CCC[C@H]1C(=O)N[C@@H](CCSC)C(=O)N[C@@H](CC(=O)O)C(=O)N[C@@H](CC(=O)O)C(=O)N[C@@H](CC(=O)O)C(=O)N[C@@H](Cc1ccccc1)C(=O)N[C@@H](CCC(N)=O)C(=O)N[C@@H](CC(C)C)C(=O)N[C@@H](CCCNC(=N)N)C(=O)N[C@@H](CO)C(=O)N[C@@H](Cc1ccccc1)C(N)=O` [13a] (H-DEALA[X1]YIPMDDDFQLRSF-NH2), the Kd [1] is reported as 12 ± 2 nM.
With `Cc1ncsc1-c1ccc(CNC(=O)[C@@H]2C[C@@H](O)CN2C(=O)[C@@H](NC(=O)COCCOCCOCCNC(=O)C[C@@H]2N=C(c3ccc(Cl)cc3)c3c(sc(C)c3C)-n3c(C)nnc32)C(C)(C)C)cc1` [MZ1, reference compound] the “effect on cell growth, colony formation (in words)” value [2] was “profound concentration-dependent cytotoxicity”, the “pEC50, antiproliferative activity” value ([3]; 72 h) was 7.3 and the Emax ([3]; Homo sapiens, 72 h, read-out: Emax, maximal response at highest concentration) was 98%. For the same compound, the EC50 ([3]; Homo sapiens, read-out: EC50, antiproliferative activity) was 54.7 nM and the EC50 ([3]; Homo sapiens, read-out: pEC50, antiproliferative activity (converted)) was 54.7 nM.
With `CC(=O)N[C@H](C(=O)N1C[C@H](O)[C@@H](F)[C@H]1C(=O)NCc1ccc(-c2scnc2C)cc1)C(C)(C)C` [14b] the chromatographic logD [4] was 1.3, the ΔG [1] was “–7.55 ± 0.03 kcal/mol” and the ΔH [1] was “–3.9 ± 0.5 kcal/mol”. For the same compound, the “–TΔS” value [1] was “–3.8 ± 0.4 kcal/mol”, the Kd [1] was 3080 nM and the “fold difference in binding affinity compared to VH032” value [1] was roughly 20 fold. The half-life at 10 µM [5] was greater than 3 h, the mouse microsomal stability [6] was 0.68 mL/min/g liver and the Papp at 5 h, 10 µM [7] was 0.081 ×10⁻⁶ cm/s.
With `CC[C@H](C)[C@H](NC(=O)[C@H](Cc1ccc(O)cc1)NC(=O)[C@@H]1[C@H](F)[C@@H](O)CN1C(=O)[C@H](C)NC(=O)[C@H](CC(C)C)NC(=O)[C@H](C)NC(=O)[C@H](CCC(=O)O)NC(=O)[C@@H](N)CC(=O)O)C(=O)N1CCC[C@H]1C(=O)N[C@@H](CCSC)C(=O)N[C@@H](CC(=O)O)C(=O)N[C@@H](CC(=O)O)C(=O)N[C@@H](CC(=O)O)C(=O)N[C@@H](Cc1ccccc1)C(=O)N[C@@H](CCC(N)=O)C(=O)N[C@@H](CC(C)C)C(=O)N[C@@H](CCCNC(=N)N)C(=O)N[C@@H](CO)C(=O)N[C@@H](Cc1ccccc1)C(N)=O` [13b] (H-DEALA[X2]YIPMDDDFQLRSF-NH2) the Kd [1] was 52 ± 3 nM.
`CC[C@H](C)[C@H](NC(=O)[C@H](Cc1ccc(O)cc1)NC(=O)[C@@H]1C[C@@H](O)CN1C(=O)[C@H](C)NC(=O)[C@H](CC(C)C)NC(=O)[C@H](C)NC(=O)[C@H](CCC(=O)O)NC(=O)[C@@H](N)CC(=O)O)C(=O)N1CCC[C@H]1C(=O)N[C@@H](CCSC)C(=O)N[C@@H](CC(=O)O)C(=O)N[C@@H](CC(=O)O)C(=O)N[C@@H](CC(=O)O)C(=O)N[C@@H](Cc1ccccc1)C(=O)N[C@@H](CCC(N)=O)C(=O)N[C@@H](CC(C)C)C(=O)N[C@@H](CCCNC(=N)N)C(=O)N[C@@H](CO)C(=O)N[C@@H](Cc1ccccc1)C(N)=O` [13c, reference compound] gave a Kd [1] of 11 ± 1 nM.
For `CC(=O)N[C@H](C(=O)N1C[C@H](O)C[C@H]1C(=O)NCc1ccc(-c2scnc2C)cc1)C(C)(C)C` [VH032], the “CHI LogD7.4” value [8] is listed as 0.90 ^a, the mouse microsomal stability [9] is listed as 0.70 ^a mL/min/g liver and the “plasma stability T1/2” value [10] is listed as >180 ^a min.
With `CC(=O)N[C@H](C(=O)N1C[C@H](O)[C@H](F)[C@H]1C(=O)NCc1ccc(-c2scnc2C)cc1)C(C)(C)C` [14a] the chromatographic logD [4] was 1.3, the ΔG [1] was “–9.02 ± 0.01 kcal/mol” and the ΔH [1] was “–7.2 ± 0.5 kcal/mol”. For the same compound, the “–TΔS” value [1] was “–1.8 ± 0.5 kcal/mol”, the “fold difference in binding affinity compared to VH032” value [1] was no more than 2 fold and the half-life at 10 µM [5] was greater than 3 h. For the same compound, the mouse microsomal stability [6] was less than 0.50 mL/min/g liver and the Papp at 5 h, 10 µM [7] was 0.23 ×10⁻⁶ cm/s.
